Source: patent US9757439B2, “Peptide vaccine comprising mutant RAS peptide and chemotherapeutic agent” (priority 2014, dated 2017)

Legend:
[1] = tested on: resectable pancreatic cancer; details: postoperative gemcitabine versus no gemcitabine; cited from earlier work
[2] = tested on: DC vaccine-induced T-cell proliferation; details: concomitant administration of gemcitabine and the DC vaccine; cited from earlier work
[3] = tested on: resected pancreatic cancer; details: in vivo

Nc1ccn([C@@H]2O[C@H](CO)[C@@H](O)C2(F)F)c(=O)n1 [gemcitabine, 4-amino-1-(2-deoxy-2,2-difluoro-β-D-erythro-pentofuranosyl)pyrimidin-2(1H)-on]
development of recurrent disease after complete resection [1]: significantly delayed | vaccine-induced immune response [2]: significantly impaired | principal adverse event related to gemcitabine ([3]; human, 6 four-week cycles): grade 3/4 neutropenia | serious adverse events considered related to gemcitabine [3]: pulmonary infection and two episodes of fever
